According to US9018176B2, “Inducers of hematopoiesis and fetal globin production for treatment of cytopenias and hemoglobin disorders” (priority 2010, dated 2015):
Values joined by “and” are separate entries in the source; they are usually repeats but may differ in a detail not shown here. Identical values can stand only once. “Also recorded” adds a separate entry of the source.

What was measured:
CB BFU-E cells = assay: CB BFU-E cell proliferation (cells/colony)
Protocol: Fetal globin-inducing activity in human erythroid progenitors was assessed. Human erythroid progenitors were cultured from peripheral blood samples, exposed to the test compounds at varying concentrations and for varying durations and analyzed for globin chain mRNA ratios. Erythroid progenitors were cultured from cord blood CD34+ cells. Briefly, CD34+ cells in the human cord blood were separated using a Ficoll-paque density gradient. CD34+ cells were cultured in H4230 medium containing 2 mM L-glutamine, 1% Methylcellulose in Iscove's Medium, 30% Fetal Bovine Serum, 1% Bovine Serum Albumin and 10^-4 M β-mercaptoethanol. Methylcellulose H4230 medium was supplemented with EPO (0.5 U/ml) and IL-3 (20 ng/ml) to support BFU-e growth. Cells were cultured in […] mini-dishes and incubated in a humidified atmosphere containing 5% CO2, at 37° C. Different concentrations of the test compounds were added at the time the cultures were established. Each compound was tested in three different cultures. BFU-e colonies grown in mini-dishes were counted on day 14 and harvested for mRNA analysis.

cell viability = conditions: cited from earlier work; for DNA fragmentation: fragmentation assays
[1] = test system: system A transport of amino acids; conditions: cited from earlier work
γ-globin mRNA [2] = assay: γ-globin mRNA in cultured primary human erythroid progenitors (BFU-e), real-time PCR; assay type: cell-based; conditions: for % induction of γ-globin mRNA gene expression: FIG. 4C, HFU-E (burst-forming units-erythroid) cells, Resveratrol 30 μM, desloratadine 50 μM, NSC 50 μM, Benserazine 5 μM; for effect in increasing % of γ-globin mRNA expression: FIG. 6, BFU-e cells, Desloratadine 3 μM, Benserazide 3 μM, NSC5397 0.6 μM; for γ-globin mRNA induction: cultured primary human erythroid progenitors, concentrations pharmacologically achievable in humans
Protocol: Erythroid progenitors were cultured from cord blood CD34+ cells. […] Each compound was tested in three different cultures. […] On day 14, RNA was extracted from cultured erythroid cells, and relative quantification PCR was performed. Briefly, cDNA was generated from equal amounts of total RNA extracted using The PerfectPure RNA Purification Kit (5 Prime Inc Gaithersburg, Md.). Real-time PCR was performed using an ABI 7500 Real-Time PCR system (Applied Biosystems, Foster City, Calif.). Levels of globin mRNA were calculated by the ΔΔCt method. […] GAPDH levels were used for standardization. Western blotting Nuclear extract of K562 cells and 14-day-old BFU-e were analyzed by electrophoresis using 5-24% gradient SDS-polyacrylamide mini-gels (BIORAD Laboratories. Hercules Calif.). Proteins in the gels were transferred to Immobilon-P membranes. Blots were then incubated with BCL11A polyclonal (Novus Biologicals, Littleton Co) or mouse monoclonal (Santa Cruz Biotechnology, Santa Cruz Calif.) antibodies, after washing blots were incubated with anti-rabbit IgG-horseradish peroxidase secondary antibody (ECL, Little Chalfont Buckinghamshire UK). BCL11A bands were detected on the X-ray film using Western Lightning Reagents (Perking Elmer Inc, Waltham, Mass.).

γ-globin = assay: Fetal globin (γ-globin mRNA, HbF) induction in phlebotomized anemic baboons; assay type: in vivo, baboons (Papio hamadryas anubis); conditions: for fetal globin mRNA: Benserazide 1 or 3 mg/kg in baboon 1509, MS-275 and desloratidine
Protocol: (§1) Studies to evaluate pharmacokinetic properties and γ-globin induction were performed in juvenile baboons (Papio hamadryas anubis). Briefly, animals were chronically phlebotomized on a daily basis to achieve stable anemia, maintaining a total hemoglobin level of 7.0 to 7.5 g/dl. Candidate compounds were administered intravenously or orally once daily in single doses for pharmacokinetic studies, or once daily in single doses, 4-5 days per week for 4-5 weeks, for pharmacodynamic studies. […] Levels of γ-globin mRNA expression and globin chain synthesis were assessed in baboons before and during treatment with test compounds. A washout period between administrations of different compounds in the same baboon was provided.
(§2) Chronically catheterized baboons were phlebotomized daily to create chronic anemia with total hemoglobin levels (Hb) between 7.0 to 7.5 g/dl which simulates the expanded erythropoiesis and anemia in sickle cell disease and beta thalassemia. Blood counts were drawn and total Hb (hemoglobin) and reticulocytes were analyzed on a hemavet analyzer. Fetal globin mRNA was analyzed by RT-PCR and proportions for f-cells were analyzed by flow cytometry. […] Desloratidine (0.6 mg/kg) was administered for 4 days following a washout period. Blood counts were obtained at least 3 days/week.
Baboons HL-25 and HD50 were phlebotomized daily to create anemia with erythroid expansion. When stably anemic, Desloratidine (0.6 mg/kg) was administered orally, fetal hemoglobin (HbF) protein levels were assayed.

γ-globin mRNA [3] = assay: γ-globin mRNA in cultured primary human erythroid progenitors (BFU-e), real-time PCR; assay type: cell-based
γ-globin mRNA [4] = assay: γ-globin mRNA gene expression in K562 cells; assay type: cell-based; conditions: for % induction of γ-globin mRNA gene expression: FIGS. 4A and 4B, Resveratrol 30 μM, desloratadine 50 μM, NSC 50 μM, Benserazine 5 μM
[5] = test system: red blood cell production; assay: Total hemoglobin and hematocrit in phlebotomized anemic baboons; assay type: in vivo, baboons (Papio hamadryas anubis); conditions: for total hemoglobin levels: MS-275 as
Protocol: as §1, §2
Baboon 1509 (weight 10.9 kg) was phlebotomized to induce anemia and marrow expansion, similar to the hemoglobin disorders.

γ-globin gene promoter = assay: Dual luciferase reporter assay (μLCRβprRlucAγprFluc cassette) in GM979 cells; assay type: cell-based; conditions: Resveratrol at 10 μM, MS-275 at 5 μM; for activity compared with sodium Butyrate: Ambroxol at 1 μM, Desloratadine at 1 μM, Benserazide at 0.03 μM (or a range of 30 nM-5 μM), NSC-95397 at 1 μM, versus sodium Butyrate at 2000 μM; for most active at inducing γ-globin mRNA expression: Benserazide at 0.03 μM
Source text: Cell-based screen for γ-globin inducing compounds in GM979 cells (Skarpidi, et al. Blood 2000; 96:321-326). Mini-gene construct integrated into GM979 cell genome. The readout is Firefly/Renilla luciferase ratio, and is designed to identify only strong inducers of the γ-globin promoter, and specificity for the γ- vs. the […]γ-globin gene. This second assay confirmed 12/15 candidates.
This assay is […], and consists of a dual-luciferase reporter construct containing the LCR and the […] luciferase and the Aγ-globin promoter linked to firefly luciferase (μLCRβprRlucAγprFluc cassette), stably-transfected into GM979 cells. The orientation of the promoters and μLCR allowed detection only of strong, specific inducers of the γ-globin gene promoter. This assay is also been predictive of in vivo HbF-inducing activity.
The γ-globin-specificity of hits was determined in a secondary assay employing a stably-transfected dual-luciferase reporter construct containing the LCR and the β-globin promoter linked to renilla luciferase and the Aγ-globin promoter linked to firefly luciferase (μLCRβprRlucAγprFluc cassette) (FIG. 2B).

[6] = Benserazide 0.1-0.3 uM, Cord Blood progenitors
[7] = Benserazide 0.1-0.3 uM, Hemoglobin disorder progenitors
[8] = Benserazide 0.1-0.3 uM, Normal progenitors
[9] = Benserazide 1 or 3 mg/kg in baboon 1509
[10] = MS275 0.5 uM, Cord Blood progenitors
[11] = MS275 0.5 uM, Normal progenitors
[12] = Ambroxol 0.1-1 uM, Cord Blood progenitors
[13] = Ambroxol 0.1-1 uM, Normal progenitors

## CCCC(=O)O [Butyrate, butyrate]
CB BFU-E cells; FIG. 8, comparator for the 3 drug candidates
  concentration required: 200 µM

## CC(C)C(N)=O [isobutyramide]
Cell viability; DNA fragmentation assays
  cell viability: decrease cell viability

## O=C(O)COc1ccccc1 [phenoxyacetic acid]
[1]
  system A transport of amino acids: do not significantly alter
Cell viability
  DNA fragmentation: reduce DNA fragmentation

## CCCC(=O)OCC [butyric acid ethyl ester]
Cell viability
  DNA fragmentation: reduce DNA fragmentation

## NC(CO)C(=O)NNCc1ccc(O)c(O)c1O (stereo not shown) [Benserazide, 2-amino-3-hydroxy-N′-(2,3,4-trihydroxybenzyl)propanehydrazide]
γ-globin mRNA [2]; [6]
  responses (cultures with induced fetal globin mRNA): 4/5
γ-globin mRNA [2]
  % induction of γ-globin mRNA gene expression: most significant % increase
  effect in increasing % of γ-globin mRNA expression: greatest effect
  γ-globin mRNA induction: up to 5 fold
γ-globin mRNA [2]; primary erythroid progenitors in vitro
  concentrations that induce fetal globin (HbF) mRNA: 0.3 to 5.0 µM
γ-globin; Baboon 1509, Benserazide oral 2 mg/kg
  Increase in γ-globin mRNA above baseline: 193%
γ-globin
  fetal globin mRNA: increased
CB BFU-E cells; FIG. 8
  number of blood cells per colony: increase the number of blood cells per colony
γ-globin mRNA [3]; [6]
  fetal globin mRNA, Mean: 300 % of control
γ-globin mRNA [3]; [7]
  fetal globin mRNA, Mean: 212 % of control
  responses (cultures with induced fetal globin mRNA): 4/4
γ-globin mRNA [3]; Benserazide 0.1-0.3 uM, Hemoglobin disorder progenitors (subjects)
  fetal globin mRNA, single subjects: 178 % of control and 143 % of control and 282 % of control and 128 % of control and 277.3 % of control
γ-globin mRNA [3]; [8]
  fetal globin mRNA, Mean: 151 % of control
  responses (cultures with induced fetal globin mRNA): 3/4
γ-globin mRNA [3]; Benserazide 0.1-0.3 uM, Normal progenitors (MB, JS, ABM)
  fetal globin mRNA, single subjects: 115 % of control and 223 % of control and 114 % of control
γ-globin mRNA [4]; K562 cells
  % induction of γ-globin mRNA gene expression: most significant % increase
[5]; Baboon 1509, Benserazide 1 mg/kg then 2 mg/kg, by 2 weeks after administration, daily phlebotomy continued, before 7.6 g/dl
  hemoglobin level after treatment: 8.9 g/dL
[5]; Baboon 1509, Benserazide 1 mg/kg then 2 mg/kg, by 2 weeks after administration, daily phlebotomy continued, before 25.6%
  hematocrit after treatment: 28%
[5]; [9]
  blood cell proliferation: increased blood cell proliferation
  total hemoglobin levels: increased
γ-globin gene promoter
  activity compared with sodium Butyrate: significantly more active
  most active at inducing γ-globin mRNA expression: most active

## Nc1ccccc1NC(=O)c1ccc(CNC(=O)OCc2cccnc2)cc1 [MS-275, N-(2-aminophenyl)-4-[N-(pyridin-3-yl-methoxycarbonyl)aminomethyl]benzamide]
γ-globin mRNA [2]; FIG. 13, MS-275 0.5 μM vs arginine butyrate 100 μM, progenitors from human sources with low or high basal HbF
  γ-globin induction compared with arginine butyrate: higher activity; also recorded: greater
γ-globin mRNA [2]
  γ-globin mRNA induction: up to 3.7 fold
γ-globin; Baboon HD50, MS-275 oral 0.18 mg/kg, 0.18 mg/kg
  Increase in γ-globin mRNA above baseline: 270%
γ-globin
  fetal globin mRNA: induced
γ-globin; FIG. 12A, MS-275 3 mg/m^2 for 4 days and 2 weeks, desloratadine 0.6 mg/kg for two days vs ST20 after 2 or 4 days
  γ-globin mRNA expression in blood compared with positive control ST20 (150 mg/kg): to the same level
γ-globin mRNA [3]; [10]
  fetal globin mRNA, Mean: 345 % of control
  responses (cultures with induced fetal globin mRNA): 2/2
γ-globin mRNA [3]; [11]
  fetal globin mRNA, Mean: 394 % of control
  responses (cultures with induced fetal globin mRNA): 5/6
γ-globin mRNA [3]; MS275 0.5 uM, Normal progenitors (MB, MB, JS, ABM, ABM)
  fetal globin mRNA, single subjects: 680 % of control and 534 % of control and 168 % of control and 463 % of control and 126 % of control
γ-globin mRNA [4]; FIG. 10B, K562 cells
  γ-globin induction, dependence on dose: dose-dependent
[5]; [9]
  total hemoglobin levels: increased
[5]; FIG. 12B, MS-275 3 mg/m^2 for 4 days and 2 weeks vs ST20 2 and 4 days, desloratadine 0.6 mg/kg for two days
  blood total hemoglobin (Hb) levels compared with positive control ST20 (150 mg/kg): to a greater extent
γ-globin gene promoter
  activity compared with sodium Butyrate: significantly more active
  most active at inducing γ-globin mRNA expression: most active

## CC(=Cc1ccccc1)C(=O)O [α-methyl cinnamic acid]
[1]
  system A transport of amino acids: do not significantly alter

## O=C1C(SCCO)=C(SCCO)C(=O)c2ccccc21 [NSC-95397]
γ-globin mRNA [2]
  % induction of γ-globin mRNA gene expression: most significant % increase
  effect in increasing % of γ-globin mRNA expression: greatest effect
γ-globin mRNA [4]; FIG. 5, K562 cells, tested Desloratadine 10 μM-100 μM, Resveratrol 5 μM-30 μM, NSC 1 μM-50 μM
  concentration giving the most γ-globin mRNA expression: 50 µM
γ-globin mRNA [4]; K562 cells
  % induction of γ-globin mRNA gene expression: most significant % increase
γ-globin gene promoter
  activity compared with sodium Butyrate: significantly more active

## Nc1c(Br)cc(Br)cc1CN[C@H]1CC[C@H](O)CC1 [Ambroxol, ambroxol]
γ-globin mRNA [2]; [12]
  fetal globin mRNA, single cultures: 302 % of control and 233 % of control and 193 % of control
γ-globin mRNA [2]
  γ-globin mRNA induction: 3 fold
γ-globin mRNA [3]; [12]
  fetal globin mRNA, Means: 243 % of control
  responses (cultures with induced fetal globin mRNA): 3/4
γ-globin mRNA [3]; [13]
  fetal globin mRNA, Means: 224 % of control
  responses (cultures with induced fetal globin mRNA): 1/1
γ-globin gene promoter
  activity compared with sodium Butyrate: significantly more active
